In US9096504B2, “Controlled chemical release of hydrogen sulfide” (Washington State University, priority 2010, dated 2015):

Columns and labels:
[1] = H2S release measurement in plasma (colorimetry method); format: in vitro ADME, bovine/calf; conditions: plasma containing ~500 μM cysteine
Description: It is known that plasma contains significant amount of free cysteine. We therefore measured H2S generation of 2-13 in plasma (containing ˜500 μM cysteine) using a colorimetry method.
To 0.5 mL of bovine/calf plasma was added […] containing zinc acetate (1% w/v, 100 μL) and trichloroacetic acid (10% w/v, 600 μL). The mixture was allowed to centrifuge for 10 min (5000 g). The precipitate was filtered out and 1.2 mL of the clear solution was transferred into a 2-mL vial containing N,N-dimethyl-1,4-phenylenediamine sulfate (150 μL, 20 mM) in 7.2 M HCl and ferric chloride (150 μL, 30 mM) in 1.2 M HCl. […] The absorbance (670 nm) of aliquots of the resulting solution (1.5 mL) was determined using a UV-VIS spectrometer. The concentration of MB^+ was then converted to the concentration of H2S according to the reaction equation shown above and the calibration curve was generated by plotting the absorbance versus [H2S].
To 2.0 mL of bovine/calf plasma (containing cysteine […]) was added 2 mL water solution containing 5a (25 μl, of 80 mM in DMSO). […] Subsequently, N,N-dimethyl-p-phenylenediamine sulfate (20 mM, 150 μL) in 7.2 M HCl was added followed by FeCl3 (30 mM, 150 μL) in 1.2 M HCl, and absorbance (670 nm) of aliquots of the resulting solution (1.5 mL) was determined 20 minutes thereafter using a UV-Vis spectrometer.

[2] = Methylene blue experiment for H2S release in PBS buffer in presence of cysteine or GSH; format: physicochemical; conditions: PBS buffer pH 7.4, donor 150 μM
Description: Na2S Standard Curve for H2S Release
2.0 mM Na2S stock solution was prepared as described in previous section. Five aliquots of Na2S solution at 3.75 μL, 7.50 μL, 15.0 μL, 45.0 μL, and 112.5 μl were injected into the 4-mL vials containing H2O (1.0 mL), zinc acetate (1% w/v, 100 μL), N,N-dimethyl-1,4-phenylenediamine sulfate (200 μL, 20 mM) in 7.2 M HCl and ferric chloride (200 μL, 30 mM) in 1.2 M HCl, respectively. Stir the resultant solution for 15 minutes at room temperature. The absorbance (670 nm) of aliquots was determined using a UV-Vis spectrometer.
Cysteine stock solution in H2O (400 mM, 112.5 μL) and N-(benzoylthio)benzamide 2 stock solution in THF (40 mM, 112.5 μL) were added into PBS buffer solution (30 mL, pH=7.4) containing EDTA (50 mM, 60 μL), respectively. Every 3 minute, 1.0 mL of aliquots were taken to 4-mL vials containing, zinc acetate (1% w/v, 100 μL), N,N-dimethyl-1,4-phenylenediamine sulfate (200 μL, 20 mM) in 7.2 M HCl and ferric chloride (200 μL, 30 mM) in 1.2 M HCl within 3 hours. Then the absorbance (670 nm) was determined using a UV-Vis spectrometer.
The initial concentrations of H2S-donors shown below were 150 μM and the detection of H2S released from these molecules was measured in presence of 1.5 mM of cysteine or GSH, unless otherwise indicated.

[3] = tested on: mice subjected to ischemia followed by reperfusion; test: Mouse model of ischemia followed by reperfusion (Elrod et al.); format: in vivo; conditions: compared to vehicle treated mice
Description: The effects of compound 2 have been tested using the mouse model of Elrod et al. (Proc. Natl. Acad. Sci. USA 2007, 104, 15560). Briefly, mice were subjected to ischemia followed by reperfusion. During reperfusion, compound 2 was administered to the mice.

[4] = 1.5 mM GSH, experimental period 3 hours

Structure (SMILES): O=C(NSC(=O)c1ccccc1)c1ccccc1 [Compound 2, N-(benzoylthio)benzamide]
- H2S generation in plasma [1]: time-dependent H2S release
- GSH Peaking time [2, 4]: 39 min
- GSH [H2S] at peaking time [2, 4]: 140.4 µM
- Cys Peaking time ([2]; 1.5 mM cysteine): 24 min
- Cys [H2S] at peaking time ([2]; 1.5 mM cysteine): 143.6 µM
- reduction in infarct size per area-at-risk (INF/AAR) ([3]; 100 μg/kg bolus during reperfusion, maximal): 40%
- infarct size per area-at-risk (INF/AAR), dose dependence ([3]; administered during reperfusion): dose-dependent reduction
